Assay results taken from patent US20240325396A1, “METHODS FOR TREATING CANCER” (Allarity Therapeutics, Inc., priority 2023, published 2024).
Where two headings read alike, the source gives them in different places.

Assays:
[1] = test system: BRCA1 mutant MDA-MB-436 human breast cancer subcutaneous xenograft; test: MDA-MB-436 subcutaneous xenograft model, anti-tumor activity; type: in vivo; conditions: 30 and 100 mg/kg
[2] = test system: human acute myeloid leukemia (AML) MV-4-11-luc2/AcGFP; test: AML MV-4-11-luc2/AcGFP survival model; type: in vivo
Advanced Solid Tumors = test: Phase 1 study E7449-E044-101, tumor response (RECIST 1.1); type: in vivo, human
Procedure: The overall objective response rate (ORR; CR+PR) was 4.9% (n=2) with 1 subject each in the 600 mg (MTD) and 800 mg dose groups with a BOR of PR.

[3] = Phase 1 study, pharmacokinetics in plasma and urine; type: in vivo, human
From the text: Food intake vs fasting comparisons were made after administration of the Cycle 1 Day 7 dose (FIG. 2A) and after the Cycle 1 Day 15 dose (FIG. 2B).

[4] = test system: PARP activity (PAR levels); test: Phase 1 study, PARP inhibition by change in PAR levels; type: in vivo, human
[5] = Safety: Phase 1 study with preliminary Phase 2 metastatic breast cancer data; type: in vivo
Procedure: Phototoxicity was in the Danish study primarily seen in 2 subjects treated during the hot summer period in 2018.
Anemia was registered in only few subjects at doses of 400 mg and above 3/42 (7%) (all grade 2) and 4/42 had increased liver enzymes (grade 2: 1/42 (2.6%) and grade 3: 3/42 (7%)).
Gastrointestinal side-effects were registered in some subjects: nausea 14/42 (33%), vomiting 7/42 (16%) and diarrhea 13/42 ([…]) all grade 1-2 apart from two cases of grade 3 diarrhea.

breast cancer = test: Phase 2 breast cancer study, response; type: in vivo, human; conditions: twelve subjects evaluable for response
From the text: A breast cancer study was initiated in June 2018 and discontinued for futility after enrollment of 16 subjects. Twelve subjects were evaluable for response: Nine had PD and three subjects had SD.

advanced ovarian cancer = test: Phase 2 advanced ovarian cancer study QD vs BID, tumor response (RECIST 1.1), PFS; type: in vivo, human
From the text: Patient population: Histologically or cytologically documented epithelial ovarian carcinoma including high-grade serous, endometrioid, clear cell, carcinosarcoma, undifferentiated, and mixed histological subtypes (independent of BRCA1 and homologous recombination (HR) deficiency (HRD) status) and with 2 or more previous chemotherapies/antibody therapies including treatment with other PARPi for advanced, refractory, or recurrent ovarian cancer.
The Interim Analysis Population (IAP) and safety population consisted of 28 patients (10 BID and 18 QD). Five patients received a first dose but dropped out before any tumor evaluation.
FIG. 4A and FIG. 4B show the best change in tumor diameter from baseline in the IAP QD population (FIG. 4A) and the IAP BID population (FIG. 4B). The mean of best change in tumor diameter from baseline in the QD population (FIG. 4A) was 4% tumor growth. The CR in the BID pollution (FIG. 4B) was unconfirmed, and consisted of target lymph node lesions that all turned normal. This CR patient also had CA125 CR unconfirmed status. The mean of best change in tumor diameter from baseline in the BID population (FIG. 4B) was 29% tumor reduction. The median PFS was not reached in the BID population, and was 50 days (1.6 months) in the QD population.

CA125 = test: Phase 2 advanced ovarian cancer study, CA125 test response (GCIG); type: in vivo, human
Procedure: Only patients with a baseline of CA125 twice the upper normal limit of 70 unit/ml who received at least one dose were included in IAP. Only patients who had completed 2 cycles were determined to be evaluable for CA125 response. Two QD patients and four BID patients were below 70 units/ml. The CA125 test was confirmed with a second measurement that was lower than or within 10% of the previous measurement.

[6] = Phase 2 advanced ovarian cancer study, adverse events and dose modifications; type: in vivo, human
[7] = Myelotoxicity, ovarian cancer patients pooled with 14 metastatic breast cancer patients; type: in vivo, human; conditions: BID + QD (N = 42)
Procedure: Because myelotoxicity appeared to be a rare event for 2×-121, 14 patients with metastatic breast cancer that received 600 mg QD in a phase II trial were included in Table 10.

[8] = published Phase I trial (Plummer, Br J Cancer 2020); cited from earlier work
P-gp = test: in vitro; conditions: mouse
[9] = test system: SR human B cell lymphoma cell line; test: Cell proliferation assay, SR; conditions: 192 h, read-out: IC50, inhibition of cell proliferation
[10] = test system: BRCA1 mutant human triple negative breast cancer cell line MDA-MB-436; test: Cell proliferation assay, MDA-MB-436; conditions: MDA-MB-436, 192 h, read-out: IC50, inhibition of cell proliferation
[11] = test system: human acute myeloid leukemia MV-4-11-luc2/AcGFP cell line; test: Cell proliferation assay, MV-4-11-luc2/AcGFP; conditions: 144 h, read-out: IC50, inhibition of cell proliferation
[12] = cited from earlier work

## O=c1[nH]nc2c3c(cccc13)N=C(CN1Cc3ccccc3C1)N2 [stenoparib, 8-(isoindolin-2-ylmethyl)-2,9-dihydro-3H-pyridazino [3,4,5-de] quinazolin-3-one]
[1]; 28 days
  tolerability, body weight loss: no significant body weight loss
[1]; consecutive 28-day administration
  tumor growth inhibition: statistically significant tumor growth inhibition
[2]; 100 mg/kg
  disease burden as measured by luciferase signal: Reduced disease burden
[2]; 100 mg/kg for 28 days
  survival benefit: statistically significant survival benefit
[2]; 10, 30 or 100 mg/kg
  tolerability, body weight loss: well-tolerated without any significant body weight loss
[2]; 10 and 30 mg/kg
  disease burden by luciferase signal and survival benefit: No statistically significant reduction in disease burden by luciferase signal or survival benefit
Advanced Solid Tumors; 13 subjects
  BOR of stable disease: 31.7%
Advanced Solid Tumors; 35 subjects assessed, investigator assessment, once daily dosing
  subjects with best overall response (BOR) of CR: None
Advanced Solid Tumors; n=2, one PR each at 600 mg and 800 mg
  overall objective response rate (ORR; CR+PR): 4.9%
[3]; 600 mg dose, plasma
  increase of AUC by food: 10%
  reduction of Cmax by food: 60%
[3]; Day -2 vs Day 15 administration
  accumulation based on AUC: minimal accumulation
[3]; human, plasma, across subjects and dose groups, oral
  Tmax: 0.5 to 4 h
[3]; in vivo
  administered dose recovered in urine: less than 1.5%
[3]; plasma, human subjects, oral, read-out: elimination half-life (converted)
  half-life: ~8 h
[3]; single or multiple oral doses between 50 mg and 800 mg
  dose proportionality of absorption in plasma: proportional absorption
[4]; 600 mg (MTD), food effect cohort, 2 to 4 hours post-dose
  inhibition in PAR levels from baseline: up to 90%
[4]; 24 hours post-dose
  decrease in PAR levels: ≥ 70%
[5]; administered orally once daily, phase I study
  MTD: 600 mg
[5]; human, in vivo
  diarrhea: 25%
  nausea: 33%
  vomiting: 16%
[5]; in vivo
  DLT: limited to fatigue and one case of anaphylactic reaction
  cases of grade 3 diarrhea: two
  hematotoxicity or hepatotoxicity: no significant hematotoxicity or hepatotoxicity was observed
Breast cancer
  subjects with PD: Nine
  subjects with SD: three
Advanced ovarian cancer; 600 mg QD, N = 18 IAP
  Tumor response CR, patients n (%): 0 (0%)
  Tumor response PD, patients n (%): 9 (50%)
  Tumor response PR, patients n (%): 0 (0%)
  Tumor response SD > 16w, patients n (%): 1 (6%)
  Tumor response SD, patients n (%): 3 (17%)
Advanced ovarian cancer; BID 200 mg morning + 400 mg evening, N = 10 IAP, unconfirmed
  Tumor response CR, patients n (%): 1 (10%) unconfirmed
Advanced ovarian cancer; BID population
  mean of best change in tumor diameter from baseline, tumor reduction: 29%
  median PFS: not reached
Advanced ovarian cancer; BID, N = 10 IAP
  Tumor response PD, patients n (%): 0 (0%)
  Tumor response PR, patients n (%): 0 (0%)
  Tumor response SD > 16w, patients n (%): 1 (10%)
  Tumor response SD, patients n (%): 3 (30%)
Advanced ovarian cancer; QD population
  mean of best change in tumor diameter from baseline, tumor growth: 4%
CA125; BID, N = 6 IAP
  CA125 response PR, patients n (%): 0 (0%)
  CA125 response SD, patients n (%): 1 (17%)
CA125; BID, N = 6 IAP, unconfirmed
  CA125 response CR, patients n (%): 1 (17%) unconfirmed
CA125; QD, N = 16 IAP
  CA125 response CR, patients n (%): 0 (0%)
  CA125 response PR, patients n (%): 0 (0%)
  CA125 response SD, patients n (%): 3 (19%)
[6]; 600 mg BID (N = 9)
  Dose modifications: Discontinuation: 0%
  Dose modifications: Interruption: 50%
  Dose modifications: Reduction: 40%
[6]; 600 mg BID (N = 10)
  Adverse events Grade 1-4: 70%
  Adverse events Grade 3-4: 20%
  Adverse events Grade 5: 0%
  Treatment-related adverse events Grade 1: 70%
  Treatment-related adverse events Grade 2: 60%
  Treatment-related adverse events Grade 3: 20%
  Treatment-related adverse events Grade 4: 0%
  Treatment-related adverse events Grade 5: 0%
[6]; 600 mg QD (N = 18)
  Adverse events Grade 1-4: 100%
  Adverse events Grade 3-4: 61%
  Adverse events Grade 5: 6%
  Dose modifications: Discontinuation: 11%
  Dose modifications: Interruption: 83%
  Dose modifications: Reduction: 28%
  Treatment-related adverse events Grade 1: 94%
  Treatment-related adverse events Grade 2: 83%
  Treatment-related adverse events Grade 3: 33%
  Treatment-related adverse events Grade 4: 0%
  Treatment-related adverse events Grade 5: 0%
[7]
  Anemia Grade 1-4: 21%
  Anemia Grade 3-4: 7%
  Neutropenia Grade 1-4: 2%
  Neutropenia Grade 3-4: 0%
  Thrombocytopenia Grade 1-4: 0%
  Thrombocytopenia Grade 3-4: 0%
[8]
  myelotoxicity among adverse events: no myelotoxicity among adverse events found in more than 5% of patients
P-gp
  IC50: 1.39 µM
P-gp; with verapamil (P-gp antagonist; concentration not stated)
  IC50: 1.82 µM
[9]
  IC50: 1.05 µM
[10]
  IC50: 0.219 µM
[11]
  IC50: 1.1 µM
PARP activity; single dose 30 mg/kg, 12 hours post-dose
  PARP activity in tumor tissue: low levels of PARP activity were observed
PARP activity; single dose 30 or 100 mg/kg, 1 and 6 hours post-dose
  PARP activity in tumor tissue: completely inhibited
PARP activity; single dose 30 or 100 mg/kg, 24 hours post-dose
  PARP activity in tumor tissue: restored to control levels

## NC(=O)c1cccc2cn(-c3ccc([C@@H]4CCCNC4)cc3)nc12 [niraparib]
[12]; 300 mg QD (N = 463), QUADRA trial
  Adverse events Grade 5: 2%
[12]; 300 mg QD (N = 463)
  Dose modifications: Discontinuation: 21%
  Dose modifications: Interruption: 62%
  Dose modifications: Reduction: 47%
  Treatment-related adverse events Grade 1: 90%
  Treatment-related adverse events Grade 2: 56%
  Treatment-related adverse events Grade 3: 20%
  Treatment-related adverse events Grade 4: <1%
[12]; QD (N = 463)
  Anemia Grade 1-4: 51%
  Anemia Grade 3-4: 27%
  Neutropenia Grade 1-4: 20%
  Neutropenia Grade 3-4: 13%
  Thrombocytopenia Grade 1-4: 52%
  Thrombocytopenia Grade 3-4: 28%
